Consider one molecule from patent US20210253598A1, “ARYL ANNULATED MACROCYCLIC INDOLE DERIVATIVES” (priority 2017, published 2021).

The target in assay [1] is MCL-1 (Homo sapiens, UniProt Q07820, K194A/K197A/R201A). Briefly: Protein-compound interaction assay, surface plasmon resonance (SPR assay, Assay 8). The assay is classed as binding. The settings on record: KD [M], SPR, immobilized MBP-MCL-1, 25° C.; geometric mean. The text has this: Protein-Compound Interaction Assay (SPR Assay)
The ability of the compounds described in this invention to bind to MCL-1 may be determined using surface plasmon resonance (SPR). This allows for the quantification of binding in terms of the equilibrium dissociation constant (KD [M]), as well as association and dissociation rate constants (kon [1/M 1/s] and koff [1/s], respectively). The measurements may be performed using Biacore® T200 or Biacore® S200 instruments (GE Healthcare).
Briefly, carboxymethylated dextran biosensor chips (Series S Sensor Chip CM5, GE Healthcare) were activated with 1-ethyl-3-(3-dimethylaminopropyl)-carbodiimide hydrochloride (EDC) and N-hydroxysuccinimide (NHS) according to the supplier's instructions. MBP-MCL-1 was diluted in 1×PBS-P+ (GE Healthcare) and injected on the activated chip surface. Subsequently, a solution of 1 M ethanolamine-HCl (GE Healthcare) was injected to block unreacted groups, resulting in approximately 400-2500 response units (RU) of immobilized protein. A reference surface was generated by treatment with NHS-EDC and ethanolamine-HCl. […] Compounds were injected for 60 s followed by a dissociation time of up to 1000 s.
The double-referenced sensorgrams were fit to a simple reversible Langmuir 1:1 reaction mechanism as implemented in the Biacore® T200 and S200 evaluation software (T200 evaluation software version 2.0 and S200 evaluation software version 1.0, GE Healthcare).

Assay [2] concerns HMC-1-8. Briefly: Anti-proliferative effect in HMC-1-8 cells, CellTiter-Glo (Assay 7). Type of assay: cell-based. To be noted: read-out: Antiproli HMC-1-8, HMC-1-8, 72 hours incubation. On the procedure:
Assessment of the Anti-Proliferative Effect of Compounds in Different Cell Lines
The impact of compounds on the proliferation of different cell lines was assessed using the CellTiter-Glo® Luminescent Cell Viability reagent from Promega (G7573).
In parallel, cells were plated in a reference (day 0) plate for time zero determination. Cells were incubated in a humidified incubator at 37° C. overnight.
Rim wells were excluded. The cells were incubated for 72 hours in a humidified incubator at 37° C. The day 0 plate was measured by adding 30 μL/well of CTG solution (CellTiter-Glo® Luminescent Cell Viability reagent, Promega G7573) to time zero wells in the reference plate followed by a 10 minutes incubation and luminescence reading at 0.1 ms. using the PHERAstar FS microplate reader (BMG Labtech).
After 72 hours incubation, the treated plates were measured in the same way as the day 0 plate mentioned above. The Bella DRC Master Sheet was used to calculate IC50s, with CI=day 0 values and C0=DMSO control values.
A general note: In ATP-based viability assays light output follows the ATP content of the culture.

Where a name gives a salt, the structure may show the parent alone.

Sequence of MCL-1 (Q07820 173-321 K194A/K197A/R201A, looked up): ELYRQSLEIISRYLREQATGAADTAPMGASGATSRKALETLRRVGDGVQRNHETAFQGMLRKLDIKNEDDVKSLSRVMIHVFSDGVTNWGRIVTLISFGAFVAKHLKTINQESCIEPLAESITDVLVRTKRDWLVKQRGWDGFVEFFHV

Broadly, the Kd is the constant that tells how readily two partners part at equilibrium. The molecule `CCc1c2c(nn1C)COCc1ccccc1Cn1c(C(=O)O)c(CCCOc3cccc4cc(F)ccc34)c3ccc(Cl)c-2c31` (single isomer, unassigned; enantiomer 1) [Example 55, (−)-3-Chloro-4-ethyl-17-{3-[(6-fluoronaphthalen-1-yl)oxy]propyl}-5-methyl-5,7,9,14-tetrahydro-indolo[7,1-fg]pyrazolo[3,4-d][2,8]benzoxazacycloundecine-16-carboxylic Acid N-ethylethanamine Salt (Enantiomer 1)] showed an equilibrium dissociation constant (Kd) in assay [1] of 3.9e-09 M. For the same molecule, the IC50 in assay [2] was determined as 2390 nM.
